Values of other authors, collected in US12151062B2, “Compositions and devices to administer pharmaceutical compositions nasally” (BOARD OF REGENTS, THE UNIVERSITY OF TEXAS SYSTEM, priority 2016, dated 2024).
Where two headings read alike, the source gives them in different places.

What was measured:
[1] = for DTE relative to nasal solution alone: mucoadhesive microemulsion i.n.
[2] = thermoreversible gel with chitosan and glycerophosphate
[3] = system: brain tumor; details: mucoadhesive solution i.n.; rats pre-dosed with acetazolamide
[4] = PLGA nanoparticles
[5] = not given; remark: listed apart in the source
[6] = thermosensitive gel i.n. compared to nasal solution in normal saline; rabbits
[7] = mice
[8] = system: P3 component of the event-related potentials; details: human subjects
[9] = not given; remark: listed apart in the source
[10] = nasal administration with vasoconstrictor phenylephrine

For `O=c1[nH]cc(F)c(=O)[nH]1` [5-FU], which “CSF levels with vs without pre-administration of acetazolamide” value ([1]; nasal delivery, rats) is on record?
Its value is “significantly higher CSF levels”.

What about the “increased brain uptake compared to i.v.” value ([1]; solution i.n., rats pre-dosed with acetazolamide) of the same compound?
The value was 104%.

Which “brain AUCs compared to intravenous administration of the nanoparticles” value (mouse, in vivo) does the source give for `CC(C)C[C@H]1C(=O)N2CCC[C@H]2[C@]2(O)O[C@](NC(=O)[C@@H]3C=C4c5cccc6[nH]c(Br)c(c56)C[C@H]4N(C)C3)(C(C)C)C(=O)N12` [Bromocriptine] here?
Its value is “over two-fold greater”.

What about the “brain and plasma AUC values” (mouse, in vivo) of the same compound?
The value was “higher”.

Which results are given for `NC(=O)N1c2ccccc2C=Cc2ccccc21` [Carbamazepine]?
DTE (thermoreversible gel i.n., mice): DTE - 0.98; brain levels in the intranasal group ([1]; even at early time points, vs intravenous solution): unable to detect significantly higher brain levels; brain AUC-to-plasma AUC ratio compared to intravenous therapy ([1]; hypromellose and Carbopol 974P gel i.n.): 4.31 times; systemic bioavailability ([1]; intranasal formulation compared to intravenous carbamazepine solution): 100%

Which “brain AUC compared to curcumin injection” value ([1]; in situ gelling microemulsion i.n.) does the source give for `COc1cc(/C=C/C(=O)CC(=O)/C=C/c2ccc(O)c(OC)c2)ccc1O` [Curcumin] here?
The value was “three times”.

For `CN(C)CCC=C1c2ccccc2COc2ccccc21` [Doxepin], which “duration of immobility, forced swim test” value [2] is on record?
Its value is “no significant difference”.

Which “brain concentrations compared to intravenous administration of duloxetine solution” value ([1]; lipid nanocarrier i.n.) does the source give for `CNCC[C@H](Oc1cccc2ccccc12)c1cccs1` [Duloxetine] here?
Its value is “about eight times higher”.

What about the DTE ([1]; lipid nanocarrier i.n., rats) of the same compound?
The DTE was 757.14%.

What about the DTE ([1]; lipid nanocarrier i.n., rats, listed as duloxetine) of the same compound?
Its DTE is 757.14%.

What about the DTE ([1]; solution i.n., rats) of the same compound?
The DTE was “to 287.34%”.

And the DTE ([1]; solution i.n., rats, listed as duloxetine)?
The DTE was 287.34%.

For `C[C@]12CC[C@@H]3c4ccc(O)cc4CC[C@H]3[C@@H]1CC[C@@H]2O` [Estradiol], which AUCCSF/AUCplasma ([1]; cyclodextrin formulation i.n., rats) is on record?
The AUCCSF/AUCplasma was 1.60.

What about the AUCCSF/AUCplasma ([1]; i.v., rats) of the same compound?
Its AUCCSF/AUCplasma is 0.61 from.

For `CN(Cc1cnc2nc(N)nc(N)c2n1)c1ccc(C(=O)N[C@@H](CCC(=O)O)C(=O)O)cc1` [Methotrexate], which “reduction in brain tumor weight” value [3] is on record?
The value was 75%.

What about the “increase in uptake compared to i.n. without acetazolamide” value ([1]; mucoadhesive solution i.n., rats pre-dosed with acetazolamide) of the same compound?
Its value is 195%.

And the “CSF AUC after nasal administration compared to intravenous administration” value ([1]; rat, in vivo, iv)?
The value was “greater than 13 fold”.

And the DTE ([1]; solution i.n., rats)?
Its DTE is “DTE- 21.7%”.

Which results are given for `COCCOC(=O)C1=C(C)NC(C)=C(C(=O)OC(C)C)C1c1cccc([N+](=O)[O-])c1` (stereo not drawn) [Nimodipine]?
AUC in olfactory bulb after i.n. compared with i.v. treatment ([1]; microemulsion, rats): Higher AUC; AUC in rest of brain after i.n. compared with i.v. treatment ([1]; microemulsion, rats): lower AUC

With `Cc1cc2c(s1)Nc1ccccc1N=C2N1CCN(C)CC1` [Olanzapine] as the compound, how does the “diffusion through sheep nasal mucosa, ex vivo” value [4] read?
Its value is “slower”.

What about the DTE ([1]; i.n. solution, rats) of the same compound?
The DTE was “to 550%”.

And the DTE ([1]; mucoadhesive nanoemulsion i.n., rats)?
The DTE was “DTE-890%”.

What about the DTE ([1]; nanomicellar carrier i.n., rats) of the same compound?
The DTE was 520.26%.

For `Cc1nc2n(c(=O)c1CCN1CCC(c3noc4cc(F)ccc34)CC1)CCCC2O` (stereo not drawn) [Paliperidone], which “brain AUCs compared to intravenous administration of the microemulsion” value ([1]; intranasal mucoadhesive microemulsion, rats) is on record?
The value was 2.43 times.

What about the DTE ([1]; mucoadhesive microemulsion (polycarbophil) i.n., rats) of the same compound?
Its DTE is 320.69%;.

What about the DTE ([1]; mucoadhesive microemulsion (polycarbophil) i.n., rats, listed as paliperidone) of the same compound?
The DTE was 320.69%.

What about the “DTE relative to nasal solution alone” value ([1]; rats) of the same compound?
Its value is 1.74-fold.

What about the “DTE relative to nasal solution alone” value ([1]; rats, listed as paliperidone) of the same compound?
Its value is 1.74 fold.

What does the source list for `Cc1nc2ccc(CN(C)c3ccc(C(=O)N[C@@H](CCC(=O)O)C(=O)O)s3)cc2c(=O)[nH]1` [Raltitrexed]?
log P [5]: −0.98; increase in the AUC after intranasal use compared to intravenous use ([1]; depending on the section of brain, rats): 54-121 fold; DTE for Cerebrum ([1]; solution (PBS pH 8) i.n., rats): 120; DTE for Olfactory Bulb ([1]; solution (PBS pH 8) i.n., rats): 127

Which “brain uptake from gel formulations” value [6] does the source give for `C#CCN[C@@H]1CCc2ccccc21` [Rasagiline] here?
The value was “significantly higher brain uptake”.

With `Cc1nc2n(c(=O)c1CCN1CCC(c3noc4cc(F)ccc34)CC1)CCCC2` [Risperidone] as the compound, how does the locomotor activity ([7]; any of the tested formulations) read?
The locomotor activity was “significantly reduced”.

And the “locomotor activity compared to nanoemulsion given intravenously” value ([7]; nanoemulsion and mucoadhesive nanoemulsion given intranasally)?
Its value is “significant reduction”.

And the “plasma AUC after intranasal administration vs intravenous” value (SLNs)?
The value was “lower”.

For `CCCN(CCC)CCc1cccc2c1CC(=O)N2` [Ropinirole], which DTE ([1]; temperature sensitive in situ gel with chitosan and HPMC i.n., rats) is on record?
The DTE was “DTE-10.4”.

For `Nc1c2c(nc3ccccc13)CCCC2` [Tacrine], which “direct transport efficiency (DTE)” value (mouse, in vivo) is on record?
Its value is 207.23.

Which “brain concentrations 30 minutes after administration” value ([1]; micellar formulation i.n., rats) does the source give for `CN(C)CCc1c[nH]c2ccc(C[C@H]3COC(=O)N3)cc12` [Zolmitriptan] here?
The value was “about fivefold higher”.

What about the “brain concentrations, 30 min up to 120 min” value ([1]; micellar nanocarrier i.n., rats) of the same compound?
The value was “significantly higher brain concentrations up to 120 minutes”.

With `NC(=O)CC[C@@H]1NC(=O)[C@H](Cc2ccccc2)NC(=O)[C@H](Cc2ccc(O)cc2)NC(=O)[C@@H](N)CSSC[C@@H](C(=O)N2CCC[C@H]2C(=O)N[C@@H](CCCN=C(N)N)C(=O)NCC(N)=O)NC(=O)[C@H](CC(N)=O)NC1=O` [arginine vasopressin] as the compound, how does the “P3 component of event-related potentials” value ([8]; after intranasal administration) read?
The value was “significant increase”.

What about the “plasma concentrations after intravenous administration compared to intranasal use” value [8] of the same compound?
The value was “higher”.

And the “P3 component of event-related potentials” value ([8]; intravenous administration, compared to placebo)?
The value was “did not show significant differences”.

Which “brain concentrations compared to unmodified PEG-PLA nanoparticles i.n.” value ([9]; wheat germ agglutinin conjugated PEG-PLA nanoparticles i.n.) does the source give for `O=c1ccc2ccccc2o1` [coumarin] here?
Its value is “two-fold increase”.

For `NCCc1ccc(O)c(O)c1` [dopamine], which “brain concentrations compared to nerve growth factor dosed at the same concentration” value ([1]; intranasal) is on record?
Its value is “fivefold higher”.

For GDF-5: growth differentiation factor 5, which “midbrain concentrations compared to acidic solution” value ([1]; rat, in vivo) is on record?
Its value is “Significantly higher midbrain concentrations compared to acidic solution”.

What does the source list for L-Tyr-D Arg?
amount delivered to the olfactory bulb [9, 10]: significantly increased; amount in the trigeminal nerve [9, 10]: decreased amount; amount of drug absorbed into the systemic circulation [9, 10]: significantly decreased; decrease in whole brain concentrations [9, 10]: about 50%

For “hypocretin-1 (QPLPDCCRQKTCSCRLYELLHGAGNHAAGILTL; Orexin-A; UniProt O43612 34-66, looked up)”, which “amount delivered to the olfactory bulb” value ([9]; in vivo) is on record?
The value was “significantly increased”.

And the “amount in the trigeminal nerve” value ([9]; in vivo)?
Its value is “decreased amount”.

And the “amount of drug absorbed into the systemic circulation” value ([9]; in vivo)?
Its value is “significantly decreased”.

And the “decrease in whole brain concentrations” value ([9]; in vivo)?
Its value is “about 50%”.

Which results are given for vasoactive intestinal peptide?
brain levels compared to solution given intranasally ([9]; in vivo): 5.6-7.7 fold; brain levels compared to unmodified nanoparticles ([9]; in vivo): higher brain levels
